Target: recombinant RSV complex (Human respiratory syncytial virus A, UniProt P28887)
Assay: RSV Polymerase Inhibition Assay
Assay type: biochemical
Experimental: Standard RSV polymerase assays were conducted in the presence of 10 nM recombinant RSV complex in a reaction buffer containing Tris-HCl pH7.5, 6 mM MgCl2, and other additives and substrates including RNA oligonucleotides and radionucleotides. Standard reactions were incubated in 96-well plate format for 2 h at 30° C., in the presence of increasing concentration of inhibitor. The reaction was stopped with 90 μL of 0.1M EDTA, and the reaction product was transferred to a “reading” 96-well plate. After washing of the plate, radiolabeled RNA products were detected according to standard procedures with a Trilux Topcount scintillation counter.

Chain of recombinant RSV complex (P28887 whole entry): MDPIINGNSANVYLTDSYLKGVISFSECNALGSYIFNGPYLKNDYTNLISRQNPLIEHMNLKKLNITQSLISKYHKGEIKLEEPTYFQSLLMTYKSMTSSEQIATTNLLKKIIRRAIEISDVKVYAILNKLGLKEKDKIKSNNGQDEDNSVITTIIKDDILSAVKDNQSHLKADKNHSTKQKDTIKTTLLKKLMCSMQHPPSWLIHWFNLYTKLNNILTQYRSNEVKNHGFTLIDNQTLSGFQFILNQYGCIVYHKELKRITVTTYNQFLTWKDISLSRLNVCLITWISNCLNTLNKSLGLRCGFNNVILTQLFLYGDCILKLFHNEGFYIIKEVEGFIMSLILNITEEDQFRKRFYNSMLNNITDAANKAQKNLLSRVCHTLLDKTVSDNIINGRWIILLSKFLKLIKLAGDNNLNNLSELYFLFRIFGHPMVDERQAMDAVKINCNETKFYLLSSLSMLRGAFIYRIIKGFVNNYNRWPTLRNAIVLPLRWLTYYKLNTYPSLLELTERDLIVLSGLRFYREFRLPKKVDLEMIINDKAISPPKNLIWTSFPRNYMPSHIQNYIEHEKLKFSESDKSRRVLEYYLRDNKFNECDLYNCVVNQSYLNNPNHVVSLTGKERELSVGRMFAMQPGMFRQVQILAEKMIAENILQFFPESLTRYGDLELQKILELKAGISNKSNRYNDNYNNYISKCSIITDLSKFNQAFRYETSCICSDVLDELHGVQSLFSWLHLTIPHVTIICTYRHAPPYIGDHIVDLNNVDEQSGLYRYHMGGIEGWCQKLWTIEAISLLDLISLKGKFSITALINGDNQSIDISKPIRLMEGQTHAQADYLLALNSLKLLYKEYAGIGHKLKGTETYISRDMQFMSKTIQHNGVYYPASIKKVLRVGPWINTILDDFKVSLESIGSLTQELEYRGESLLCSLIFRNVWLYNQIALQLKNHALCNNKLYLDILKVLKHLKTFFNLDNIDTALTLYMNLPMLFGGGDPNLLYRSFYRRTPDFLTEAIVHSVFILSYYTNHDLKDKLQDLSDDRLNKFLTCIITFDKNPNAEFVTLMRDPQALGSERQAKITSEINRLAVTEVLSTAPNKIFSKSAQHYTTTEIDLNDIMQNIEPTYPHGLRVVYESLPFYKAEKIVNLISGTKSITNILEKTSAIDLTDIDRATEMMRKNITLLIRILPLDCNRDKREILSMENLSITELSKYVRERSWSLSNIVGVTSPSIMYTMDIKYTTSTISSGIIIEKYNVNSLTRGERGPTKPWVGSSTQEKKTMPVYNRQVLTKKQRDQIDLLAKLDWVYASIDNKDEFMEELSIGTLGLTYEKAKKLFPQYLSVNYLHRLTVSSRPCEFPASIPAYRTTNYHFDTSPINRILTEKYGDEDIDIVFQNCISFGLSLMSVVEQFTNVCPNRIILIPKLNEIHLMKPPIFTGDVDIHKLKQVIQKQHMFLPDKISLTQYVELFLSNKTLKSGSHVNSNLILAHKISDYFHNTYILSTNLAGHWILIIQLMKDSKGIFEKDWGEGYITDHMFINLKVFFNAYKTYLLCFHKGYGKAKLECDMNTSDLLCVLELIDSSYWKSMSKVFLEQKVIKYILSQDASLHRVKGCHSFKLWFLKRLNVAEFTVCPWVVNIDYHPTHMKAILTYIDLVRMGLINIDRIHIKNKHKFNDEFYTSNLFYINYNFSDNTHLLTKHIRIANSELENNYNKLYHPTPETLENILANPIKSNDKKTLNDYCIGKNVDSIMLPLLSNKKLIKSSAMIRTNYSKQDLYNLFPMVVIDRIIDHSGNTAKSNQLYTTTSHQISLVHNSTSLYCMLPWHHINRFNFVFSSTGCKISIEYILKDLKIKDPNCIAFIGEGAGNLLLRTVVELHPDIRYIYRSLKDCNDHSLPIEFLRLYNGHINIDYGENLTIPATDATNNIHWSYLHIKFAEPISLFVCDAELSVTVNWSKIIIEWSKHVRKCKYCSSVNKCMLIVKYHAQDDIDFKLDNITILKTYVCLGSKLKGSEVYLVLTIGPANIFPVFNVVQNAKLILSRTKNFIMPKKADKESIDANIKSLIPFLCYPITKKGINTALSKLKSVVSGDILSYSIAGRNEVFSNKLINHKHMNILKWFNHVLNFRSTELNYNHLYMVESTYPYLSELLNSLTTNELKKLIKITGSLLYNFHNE
Chain of recombinant RSV complex (P03421 whole entry, further chain): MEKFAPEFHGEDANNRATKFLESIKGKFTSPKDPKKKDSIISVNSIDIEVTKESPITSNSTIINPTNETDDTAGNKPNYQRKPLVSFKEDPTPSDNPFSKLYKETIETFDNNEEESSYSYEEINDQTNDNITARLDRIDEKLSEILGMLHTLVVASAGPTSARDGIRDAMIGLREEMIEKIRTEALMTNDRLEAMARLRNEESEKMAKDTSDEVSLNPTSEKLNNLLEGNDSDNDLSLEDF

`COc1cc(C(=O)NCC(C)(O)c2nc(-c3ccc(F)c(Cl)c3)c(C)n2C)ccc1OCCF` (centres unmarked) [Compound 144] was tested. Which IC50 did it give?
The IC50 was < 100 µM.

Which IC50 does the source give for `COc1cc(C(=O)NCC(C)(O)c2ccc(OC)c(-c3ccc(F)c(Cl)c3)n2)ccc1-c1cccnc1` (centres unmarked) [Compound 146] here?
The IC50 was < 10 µM.

For `COc1cc(C(=O)NCC(C)(O)c2ccc(OC)c(-c3ccc(F)c(Cl)c3)n2)ccc1N1CCCC1=O` (centres unmarked) [Compound 151], which IC50 is on record?
Its IC50 is < 10 µM.

With `COc1cc(C(=O)NCC(O)c2ccc(OC)c(-c3ccc(F)c(Cl)c3)n2)ccc1OC(F)F` (centres unmarked) [Compound 153] as the molecule, how does the IC50 read?
The IC50 was < 10 µM.

How did the IC50 turn out when `CCOc1ccc(C(=O)NCC(O)c2ccc(OC)c(-c3ccc(F)c(Cl)c3)n2)cc1OC` (centres unmarked) [Compound 154] was run?
The IC50 was < 10 µM.

With `COc1cc(C(=O)NCC(O)(CN2CCCCC2)c2ccc(OC)c(-c3ccc(F)c(Cl)c3)n2)ccc1OCCO` (centres unmarked) [Compound 188] as the molecule, how does the IC50 read?
Its IC50 is < 10 µM.

`COc1cc(C(=O)NCC(O)(c2cc3c(c(-c4ccc(F)c(Cl)c4)n2)OCC3(C)C)C(F)(F)F)ccc1OC1CCNC1=O` (centres unmarked) [Compound 203] was tested. Which IC50 did it give?
Its IC50 is < 10 µM.

`COc1cc(C(=O)NCC(O)(Cn2ccnc2)c2cc3c(c(-c4ccc(F)c(Cl)c4)n2)OCC3(C)C)ccc1OCCO` (centres unmarked) [Compound 225] was tested. Which IC50 did it give?
Its IC50 is < 1 µM.

With `COc1cc(C(=O)NCC(O)(c2cc(CNC(C)=O)cc(-c3ccc(F)cc3)n2)C(F)(F)F)ccc1OC1CC1` (centres unmarked) [Compound 329] as the molecule, how does the IC50 read?
Its IC50 is < 1 µM.

With `COc1cc(C(=O)NCC(O)(c2ccc(OC)c(-c3ccc(F)c(Cl)c3)n2)C(F)(F)F)ccc1OC1CCN(C)C1=O` (centres unmarked) [Compound 350] as the molecule, how does the IC50 read?
Its IC50 is < 10 µM.

With `COc1cc(C(=O)NCC(O)(c2ccc(OC)c(-c3ccc(F)c(Cl)c3)n2)C2CC2)ccc1OCc1ncnn1C` (centres unmarked) [Compound 352] as the molecule, how does the IC50 read?
Its IC50 is < 10 µM.

Which IC50 does the source give for `COc1cc(C(=O)NCC(C)(O)c2ccc(OC)c(-c3ccc(F)c(Cl)c3)n2)ccc1OCC#N` (centres unmarked) [Compound 367] here?
Its IC50 is < 1 µM.

With `COc1cc(C(=O)NCC(C)(O)c2nc(-c3ccc(F)c(Cl)c3)ccc2F)ccc1OCC(N)=O` (centres unmarked) [Compound 377] as the molecule, how does the IC50 read?
The IC50 was < 10 µM.

With `COc1cc(C(=O)NCC(C)(O)c2ccc(OC)c(-c3ccc(F)c(Cl)c3)n2)ccc1OCCN` (centres unmarked) [Compound 382] as the molecule, how does the IC50 read?
The IC50 was < 100 µM.

Which IC50 does the source give for `COc1cc(C(=O)NCC(O)(c2cc(C(C)(C)NC(=O)OCc3ccccc3)cc(-c3ccc(F)c(Cl)c3)n2)C(F)(F)F)ccc1OC1CC1` (centres unmarked) [Compound 399] here?
Its IC50 is < 1 µM.

For `CNC(=O)COc1ccc(C(=O)NCC(O)(c2ccc(OC)c(-c3ccc(F)c(Cl)c3)n2)C(F)(F)F)cc1OC` (centres unmarked) [Compound 402], which IC50 is on record?
Its IC50 is < 1 µM.

For `COc1cc(C(=O)NCC(O)(c2ccc(OCCN(C)C)c(-c3ccc(F)cc3)n2)C(F)(F)F)ccc1OC1CC1` (centres unmarked) [Compound 480], which IC50 is on record?
Its IC50 is < 10 µM.

How did the IC50 turn out when `CC1(N)COc2c1cc(C(O)(CNC(=O)c1ccc(OC3CC3)c(CO)c1)C(F)(F)F)nc2-c1ccc(F)cc1` (centres unmarked) [Compound 481] was run?
The IC50 was < 1 µM.

How did the IC50 turn out when `COc1cc(C(=O)NCC(O)(c2cc(CCN)cc(-c3ccc(F)c(Cl)c3)n2)C(F)(F)F)ccc1OC1CC1` (centres unmarked) [Compound 522] was run?
The IC50 was < 1 µM.

For `COc1cc(C(=O)NCC(O)(c2cc(C(C)(C)N)cc(-c3ccc(F)cc3)n2)C(F)(F)F)ccc1OCC(F)(F)F` (centres unmarked) [Compound 573], which IC50 is on record?
Its IC50 is < 1 µM.

Which IC50 does the source give for `COc1cc(C(=O)NCC(O)(c2cc(C(C)(C)N)cc(-c3ccc(F)c(Cl)c3)n2)C(F)(F)F)ccc1OCC(=O)NS(C)(=O)=O` (centres unmarked) [Compound 618] here?
Its IC50 is < 1 µM.

How did the IC50 turn out when `COc1cc(C(=O)NCC(O)(c2cc3c(c(-c4ccc(F)cc4)n2)OCC3(C)N)C(F)(F)F)ccc1OCS(N)(=O)=O` (centres unmarked) [Compound 648] was run?
The IC50 was < 1 µM.

`COc1cc(C(=O)NCC(O)(c2cc3c(c(-c4ccc(F)cc4)n2)OCC32CCCN2)C(F)(F)F)ccc1OCCO` (centres unmarked) [Compound 652] was tested. Which IC50 did it give?
The IC50 was < 1 µM.

For `COc1cc(C(=O)NCC(O)(c2cc(C(C)(C)N)cc(-c3ccc(C(F)(F)F)cc3)n2)C(F)(F)F)ccc1OCCO` (centres unmarked) [Compound 658], which IC50 is on record?
Its IC50 is < 1 µM.

Which IC50 does the source give for `COc1ccc(-c2cc(C(C)(C)N)cc(C(O)(CNC(=O)c3ccc(OCCO)c(OC)c3)C(F)(F)F)n2)cn1` (centres unmarked) [Compound 660] here?
Its IC50 is < 10 µM.

Which IC50 does the source give for `COc1cc(C(=O)NCC(O)(c2cc3c(c(-c4ccc(Cl)nc4)n2)OCC3(C)N)C(F)(F)F)ccc1OC1CC1` (centres unmarked) [Compound 668] here?
Its IC50 is < 1 µM.

From US11021444B2, “Antiviral compounds” (priority 2013, dated 2021)
